Measured values taken from the supplement of paper PMC11451515.

Key:
Details in all cases: 48 h
SEM cells [1] = assay: cell viability relative to DMSO control; higher = less cytotoxic
Method in brief: (§1)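 In 1536-well plates, 5 μl of leukemia cells were seeded per well: 500 cells/well for NOMO1 or SEM and 1000 cells/well for P12-Ichikawa. Each line had first been adapted for at least four passages in each medium. Library compounds in DMSO were pin-dosed at 11 threefold concentrations between 47 μM and 0.79 nM, and CellTiter-Glo One luminescence was read after 48 h at 37°C. Viability is a per-plate percentage relative to DMSO wells, with cell-free wells as background.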

P12-Ichikawa [2] = assay: as above
Method in brief: as §1

NOMO1 [3] = assay: as above
Method in brief: as §1

SEM cells [4] = assay: AUC of viability dose-response curve (% viability x log10 dose units); higher = less sensitive
Method in brief: (§2)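 Library compounds in DMSO were applied for 48 h at 37°C at 11 threefold doses (47 μM to 0.79 nM) to medium-adapted leukemia cells in 1536-well plates holding 500 or 1000 cells/well. Luminescence from CellTiter-Glo One was normalised plate by plate against DMSO and cell-free wells. Area under the curve came from trapezoidal integration of a log-logistic fit, after scaling curves that rose above full viability and discarding those that failed quality control. The fit had four parameters and used log10 doses.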

P12-Ichikawa [5] = assay: as above
Method in brief: as §2

NOMO1 [6] = assay: as above
Method in brief: as §2

NCCOc1cc(C(=O)Nc2cc(OCCN)c3ccccc3n2)nc(C(=O)Nc2cc(OCCN)c3ccccc3n2)c1
cell viability [%]
Details | NOMO1 [3] | P12-Ichikawa [2] | SEM cells [1]
HPLM + 10% dialyzed FBS, 0.000781 µM | 65.8 | 44.2 | 47.6
HPLM + 10% dialyzed FBS, 0.00234 µM | 36.4 | 13.1 | 56.1
HPLM + 10% dialyzed FBS, 0.00702 µM | 43.9 | 12.7 | 36.1
HPLM + 10% dialyzed FBS, 0.0211 µM | 40.8 | 12.8 | 23.8
HPLM + 10% dialyzed FBS, 0.0632 µM | 38.1 | 14.1 | 19.4
HPLM + 10% dialyzed FBS, 0.19 µM | 47.5 | 12.8 | 22.9
HPLM + 10% dialyzed FBS, 0.569 µM | 43.2 | 13.3 | 22.8
HPLM + 10% dialyzed FBS, 1.71 µM | 40.3 | 9.79 | 21.5
HPLM + 10% dialyzed FBS, 5.12 µM | 42.2 | 7.51 | 22.2
HPLM + 10% dialyzed FBS, 15.4 µM | 56.4 | 21.5 | 31.1
HPLM + 10% dialyzed FBS, 46.1 µM | 56.4 | 61.7 | 46.3
RPMI 5 mM glucose + 10% FBS, 0.000781 µM | 96 | 113 | 23.9
RPMI 5 mM glucose + 10% FBS, 0.00234 µM | 60.5 | 120 | 19.8
RPMI 5 mM glucose + 10% FBS, 0.00702 µM | 42.3 | 113 | 23.7
RPMI 5 mM glucose + 10% FBS, 0.0211 µM | 27 | 19 | 21.1
RPMI 5 mM glucose + 10% FBS, 0.0632 µM | 25.8 | 17.4 | 22.1
RPMI 5 mM glucose + 10% FBS, 0.19 µM | 25.2 | 17 | 23.6
RPMI 5 mM glucose + 10% FBS, 0.569 µM | 27.9 | 15.7 | 23.2
RPMI 5 mM glucose + 10% FBS, 1.71 µM | 24 | 16 | 19.3
RPMI 5 mM glucose + 10% FBS, 5.12 µM | 25.8 | 16.7 | 27.5
RPMI 5 mM glucose + 10% FBS, 15.4 µM | 38.5 | 24.4 | 32.6
RPMI 5 mM glucose + 10% FBS, 46.1 µM | 64.1 | 68.8 | 61.1
RPMI 5 mM glucose + 10% dialyzed FBS, 0.000781 µM | – | – | 67.3
RPMI 5 mM glucose + 10% dialyzed FBS, 0.00234 µM | – | – | 58.4
RPMI 5 mM glucose + 10% dialyzed FBS, 0.00702 µM | – | – | 42.6
RPMI 5 mM glucose + 10% dialyzed FBS, 0.0211 µM | – | – | 25.6
RPMI 5 mM glucose + 10% dialyzed FBS, 0.0632 µM | – | – | 22.9
RPMI 5 mM glucose + 10% dialyzed FBS, 0.19 µM | – | – | 20
RPMI 5 mM glucose + 10% dialyzed FBS, 0.569 µM | – | – | 22.9
RPMI 5 mM glucose + 10% dialyzed FBS, 1.71 µM | – | – | 25.4
RPMI 5 mM glucose + 10% dialyzed FBS, 5.12 µM | – | – | 21.7
RPMI 5 mM glucose + 10% dialyzed FBS, 15.4 µM | – | – | 38.2
RPMI 5 mM glucose + 10% dialyzed FBS, 46.1 µM | – | – | 59.5

SEM cells [4]
Details | AUC of viability dose-response curve
HPLM + 10% dialyzed FBS | 148
RPMI 5 mM glucose + 10% FBS | 122
RPMI 5 mM glucose + 10% dialyzed FBS | 170

COc1cc2c(cc1O)CCC1C2CC[C@@]2(C)C1CC[C@@H]2O (some centres not stated)
cell viability [%]
Details | NOMO1 [3] | P12-Ichikawa [2] | SEM cells [1]
HPLM + 10% dialyzed FBS, 0.000781 µM | – | 116 | 88.7
HPLM + 10% dialyzed FBS, 0.00234 µM | – | 120 | 114
HPLM + 10% dialyzed FBS, 0.00702 µM | – | 118 | 98.4
HPLM + 10% dialyzed FBS, 0.0211 µM | – | 89.9 | 25.9
HPLM + 10% dialyzed FBS, 0.0632 µM | – | 120 | 108
HPLM + 10% dialyzed FBS, 0.19 µM | – | 112 | 113
HPLM + 10% dialyzed FBS, 0.569 µM | – | 114 | 95.8
HPLM + 10% dialyzed FBS, 1.71 µM | – | 65.1 | 73.2
HPLM + 10% dialyzed FBS, 5.12 µM | – | 31.8 | 40.7
HPLM + 10% dialyzed FBS, 15.4 µM | – | 17.9 | 31.4
HPLM + 10% dialyzed FBS, 46.1 µM | – | 15.8 | 26.2
RPMI 5 mM glucose + 10% FBS, 0.000781 µM | 117 | – | 120
RPMI 5 mM glucose + 10% FBS, 0.00234 µM | 111 | – | 108
RPMI 5 mM glucose + 10% FBS, 0.00702 µM | 103 | – | 129
RPMI 5 mM glucose + 10% FBS, 0.0211 µM | 110 | – | 22
RPMI 5 mM glucose + 10% FBS, 0.0632 µM | 121 | – | 124
RPMI 5 mM glucose + 10% FBS, 0.19 µM | 120 | – | 125
RPMI 5 mM glucose + 10% FBS, 0.569 µM | 111 | – | 107
RPMI 5 mM glucose + 10% FBS, 1.71 µM | 101 | – | 84.2
RPMI 5 mM glucose + 10% FBS, 5.12 µM | 84.2 | – | 49.1
RPMI 5 mM glucose + 10% FBS, 15.4 µM | 25.1 | – | 23.5
RPMI 5 mM glucose + 10% FBS, 46.1 µM | 32.6 | – | 21.7
RPMI 5 mM glucose + 10% dialyzed FBS, 0.000781 µM | 118 | 120 | 116
RPMI 5 mM glucose + 10% dialyzed FBS, 0.00234 µM | 129 | 125 | 118
RPMI 5 mM glucose + 10% dialyzed FBS, 0.00702 µM | 117 | 115 | 126
RPMI 5 mM glucose + 10% dialyzed FBS, 0.0211 µM | 116 | 114 | 24.6
RPMI 5 mM glucose + 10% dialyzed FBS, 0.0632 µM | 121 | 126 | 118
RPMI 5 mM glucose + 10% dialyzed FBS, 0.19 µM | 115 | 120 | 123
RPMI 5 mM glucose + 10% dialyzed FBS, 0.569 µM | 119 | 115 | 108
RPMI 5 mM glucose + 10% dialyzed FBS, 1.71 µM | 115 | 96.3 | 88.7
RPMI 5 mM glucose + 10% dialyzed FBS, 5.12 µM | 63.8 | 47 | 40.2
RPMI 5 mM glucose + 10% dialyzed FBS, 15.4 µM | 33.9 | 27.8 | 26.5
RPMI 5 mM glucose + 10% dialyzed FBS, 46.1 µM | 40.4 | 26.2 | 28.2

AUC of viability dose-response curve
Details | HPLM + 10% dialyzed FBS | RPMI 5 mM glucose + 10% FBS | RPMI 5 mM glucose + 10% dialyzed FBS
NOMO1 [6] | 390 | 412 | 404
P12-Ichikawa [5] | 359 | 368 | 382

COC1=CC(c2cc3ccccc3[nH]2)=N/C1=C/c1[nH]c(C)cc1C
AUC of viability dose-response curve
Details | NOMO1 [6] | P12-Ichikawa [5] | SEM cells [4]
HPLM + 10% dialyzed FBS | 463 | 455 | 436
RPMI 5 mM glucose + 10% FBS | 470 | 450 | 420
RPMI 5 mM glucose + 10% dialyzed FBS | 448 | 452 | 391

CCC[C@H](Nc1nc(-c2ccc(NC(=O)NCC)c(OC)c2)ncc1C)c1cccnc1
cell viability [%]
Details | NOMO1 [3] | P12-Ichikawa [2] | SEM cells [1]
HPLM + 10% dialyzed FBS, 0.000781 µM | 119 | 114 | 87.7
HPLM + 10% dialyzed FBS, 0.00234 µM | 109 | 115 | 108
HPLM + 10% dialyzed FBS, 0.00702 µM | 115 | 117 | 94
HPLM + 10% dialyzed FBS, 0.0211 µM | 126 | 120 | 112
HPLM + 10% dialyzed FBS, 0.0632 µM | 47.8 | 22.3 | 27.2
HPLM + 10% dialyzed FBS, 0.19 µM | 41.7 | 11.4 | 28.4
HPLM + 10% dialyzed FBS, 0.569 µM | 44.2 | 9.4 | 26.7
HPLM + 10% dialyzed FBS, 1.71 µM | 48.7 | 8.46 | 19.4
HPLM + 10% dialyzed FBS, 5.12 µM | 45.8 | 7.94 | 12.9
HPLM + 10% dialyzed FBS, 15.4 µM | 48.4 | 7.62 | 13.1
HPLM + 10% dialyzed FBS, 46.1 µM | 39.7 | 6.68 | 10.7
RPMI 5 mM glucose + 10% FBS, 0.000781 µM | 114 | 125 | 4.71
RPMI 5 mM glucose + 10% FBS, 0.00234 µM | 112 | 137 | 78.8
RPMI 5 mM glucose + 10% FBS, 0.00702 µM | 129 | 123 | 84.3
RPMI 5 mM glucose + 10% FBS, 0.0211 µM | 115 | 136 | 114
RPMI 5 mM glucose + 10% FBS, 0.0632 µM | 50 | 21.8 | 16.5
RPMI 5 mM glucose + 10% FBS, 0.19 µM | 31.5 | 12.7 | 21
RPMI 5 mM glucose + 10% FBS, 0.569 µM | 33.8 | 11.7 | 17.2
RPMI 5 mM glucose + 10% FBS, 1.71 µM | 26.4 | 8.52 | 10.4
RPMI 5 mM glucose + 10% FBS, 5.12 µM | 27.8 | 8.89 | 6.57
RPMI 5 mM glucose + 10% FBS, 15.4 µM | 30.9 | 7.34 | 6.69
RPMI 5 mM glucose + 10% FBS, 46.1 µM | 25.7 | 6.34 | 3.95
RPMI 5 mM glucose + 10% dialyzed FBS, 0.000781 µM | 105 | 120 | 102
RPMI 5 mM glucose + 10% dialyzed FBS, 0.00234 µM | 120 | 125 | 105
RPMI 5 mM glucose + 10% dialyzed FBS, 0.00702 µM | 122 | 122 | 87.1
RPMI 5 mM glucose + 10% dialyzed FBS, 0.0211 µM | 125 | 124 | 134
RPMI 5 mM glucose + 10% dialyzed FBS, 0.0632 µM | 34.6 | 29.6 | 23.6
RPMI 5 mM glucose + 10% dialyzed FBS, 0.19 µM | 35.3 | 18.1 | 23.7
RPMI 5 mM glucose + 10% dialyzed FBS, 0.569 µM | 39.2 | 17.2 | 24.9
RPMI 5 mM glucose + 10% dialyzed FBS, 1.71 µM | 31.2 | 10.4 | 10.9
RPMI 5 mM glucose + 10% dialyzed FBS, 5.12 µM | 23.9 | 11 | 7.58
RPMI 5 mM glucose + 10% dialyzed FBS, 15.4 µM | 31.1 | 10.1 | 7.31
RPMI 5 mM glucose + 10% dialyzed FBS, 46.1 µM | 28.7 | 7.87 | 4.35

AUC of viability dose-response curve
Details | HPLM + 10% dialyzed FBS | RPMI 5 mM glucose + 10% FBS | RPMI 5 mM glucose + 10% dialyzed FBS
NOMO1 [6] | 287 | 251 | 251
P12-Ichikawa [5] | 195 | 194 | 205
